The target in one assay is T1, NMDA receptor.
T1 construct: rat cortex membranes
In words: [3H]MK-801 binding assay (rat cortex synaptic plasma membranes). Conditions: read-out: [3H]MK-801 data IC50, Table I. On the procedure:
Synaptic plasma membranes (SPMs) from rat cortex were prepared as follows. Isolated cerebral cortices from male and female rats were purchased from Pel-Freez (Rogers, Ariz.) in bulk, and stored at −80° C. The cortices from 25 rats were thawed and pooled. […] The resulting homogenates were centrifuged for 10 min at 1,000×g in a T865 rotor, UltraPro80 Sorvall Centrifuge. The supernatant was removed and subsequently centrifuged at 30,000×g for 30 min. […] Membranes were washed by re-suspension in 500 ml of 5 mM K-EDTA (pH 7.0), incubated at 32° C. for 30 min with stirring, and centrifuged at 100,000×g for 30 min. The final pellet was resuspended in 60 ml of […] K-EDTA (pH 7.0) and stored in aliquots at −80° C. The extensive washing procedure utilized in this assay was designed to minimize the concentrations of glutamate and glycine (co-agonists at the NMDA receptor-ionophore complex) present in the membrane preparation.
On the day of assay, aliquots of SPM were thawed and resuspended in 75 vols of 5 mM K-EDTA, pH 7.0. SPM were centrifuged at 100,000×g for 30 min at 4° C.
The SPM pellet was resuspended in assay buffer (30 mM EPPS, 1 mM K-EDTA, pH 7.0) by polytron. […] Binding was started by the addition of the tissue homogenate. The assay was terminated by the addition of 4 ml ice-cold buffer, followed by filtration over glass-fiber filters (Schleicher & Schuell No. 30) on a Millipore 12-well filtration manifold. Filters were washed with another 3 ×4 ml ice-cold buffer (pH 7.0). Radioactivity on the filters was measured using Fisherbrand Scinti-Safe scintillation cocktail. Samples were shaken for 45-60 min on a shaker platform to solubilize the radioactivity. Counting for ^3H was performed in a Beckman 6000IC LS Scintillation Counter for 4 min per sample.

Assay [1] deals with T2, serotonin transporter site (Rattus norvegicus, UniProt P31652).
T2 construct: tissue NovaScreen (performed the assay); host or cells: rat forebrain membranes
T2 sequence (P31652 whole entry): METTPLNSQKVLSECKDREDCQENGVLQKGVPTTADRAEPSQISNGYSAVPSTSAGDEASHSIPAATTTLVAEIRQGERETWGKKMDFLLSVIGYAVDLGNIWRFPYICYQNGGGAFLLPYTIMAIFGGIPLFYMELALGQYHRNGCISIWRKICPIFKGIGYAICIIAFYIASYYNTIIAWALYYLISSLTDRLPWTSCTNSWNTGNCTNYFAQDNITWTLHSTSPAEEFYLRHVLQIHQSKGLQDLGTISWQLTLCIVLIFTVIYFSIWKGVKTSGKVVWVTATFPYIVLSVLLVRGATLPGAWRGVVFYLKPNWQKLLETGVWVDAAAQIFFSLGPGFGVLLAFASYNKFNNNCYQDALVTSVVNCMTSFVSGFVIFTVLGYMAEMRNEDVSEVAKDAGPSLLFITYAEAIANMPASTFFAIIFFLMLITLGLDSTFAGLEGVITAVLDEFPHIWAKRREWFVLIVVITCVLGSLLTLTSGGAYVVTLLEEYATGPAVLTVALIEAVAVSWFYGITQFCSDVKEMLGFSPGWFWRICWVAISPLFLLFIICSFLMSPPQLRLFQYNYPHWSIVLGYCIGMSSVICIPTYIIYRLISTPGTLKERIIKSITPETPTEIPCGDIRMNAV
In words: Serotonin reuptake inhibition assay ([3H]citalopram binding, rat forebrain membranes). The following applies: Table I; for inhibition at 0.1 µM: @ 100 nM (top number); for inhibition at 0.1 µM / inhibition at 10 µM: read-out: 5-HT Uptake mean % inhibition; for inhibition at 10 µM: @ 10.0 μM (bottom number); for Ki: read-out: 5-HT Uptake Ki. How it is done:
(§1) Monoamine Transporter Minding Assays
(§2) Monoamine transporter binding assays (reuptake inhibition assays) were performed by NovaScreen using standard radioligand binding assays. The transporter binding assays are described briefly below:
Serotonin Reuptake Inhibition Assay
Rat forebrain membranes were incubated with 0.7 nM [^3H] citalopram, N-methyl, (70-87 Ci/mmol)in 50 mM Tris-HCl (pH 7.4), 120 mM NaCl, and 5 mM KCl at 25° C. for 60 minutes. […] Reactions were terminated by rapid vacuum filtration onto glass fiber filters.

Assay [2] deals with T3, norepinephrine transporter site (Rattus norvegicus, UniProt Q63380).
T3 construct: tissue NovaScreen (performed the assay); host or cells: rat forebrain membranes
T3 sequence (Q63380 1-617): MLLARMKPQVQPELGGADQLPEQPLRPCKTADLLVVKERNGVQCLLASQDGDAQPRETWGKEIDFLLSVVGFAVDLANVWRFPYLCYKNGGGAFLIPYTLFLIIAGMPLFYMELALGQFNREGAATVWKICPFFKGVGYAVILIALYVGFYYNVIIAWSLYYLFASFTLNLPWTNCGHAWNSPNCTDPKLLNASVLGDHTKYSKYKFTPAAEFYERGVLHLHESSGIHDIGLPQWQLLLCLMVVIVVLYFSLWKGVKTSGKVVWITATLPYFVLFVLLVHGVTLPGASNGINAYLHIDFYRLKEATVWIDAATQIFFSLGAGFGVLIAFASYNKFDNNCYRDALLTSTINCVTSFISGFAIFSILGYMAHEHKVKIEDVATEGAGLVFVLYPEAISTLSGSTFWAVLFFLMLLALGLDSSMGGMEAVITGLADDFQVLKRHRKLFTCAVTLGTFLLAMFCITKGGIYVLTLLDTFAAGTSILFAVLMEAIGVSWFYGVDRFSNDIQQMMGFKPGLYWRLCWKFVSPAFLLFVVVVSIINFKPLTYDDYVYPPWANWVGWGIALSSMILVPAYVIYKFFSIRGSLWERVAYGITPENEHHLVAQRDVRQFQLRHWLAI
Briefly: Norepinephrine reuptake inhibition assay ([3H]nisoxetine binding, rat forebrain membranes). Conditions: for inhibition at 0.1 µM / inhibition at 10 µM: read-out: NE Uptake mean % inhibition; for Ki: read-out: NE Uptake Ki. How it is done: as §1, §2
Norepinephrine Reuptake Inhibition Assay
Reactions were terminated by rapid vacuum filtration onto glass fiber filters.

For assay [3], the target named is T4, dopamine transporter site (Cavia porcellus, UniProt H0WCX4).
T4 construct: tissue NovaScreen (performed the assay); host or cells: guinea pig striatal membranes
T4 sequence (H0WCX4 1-619): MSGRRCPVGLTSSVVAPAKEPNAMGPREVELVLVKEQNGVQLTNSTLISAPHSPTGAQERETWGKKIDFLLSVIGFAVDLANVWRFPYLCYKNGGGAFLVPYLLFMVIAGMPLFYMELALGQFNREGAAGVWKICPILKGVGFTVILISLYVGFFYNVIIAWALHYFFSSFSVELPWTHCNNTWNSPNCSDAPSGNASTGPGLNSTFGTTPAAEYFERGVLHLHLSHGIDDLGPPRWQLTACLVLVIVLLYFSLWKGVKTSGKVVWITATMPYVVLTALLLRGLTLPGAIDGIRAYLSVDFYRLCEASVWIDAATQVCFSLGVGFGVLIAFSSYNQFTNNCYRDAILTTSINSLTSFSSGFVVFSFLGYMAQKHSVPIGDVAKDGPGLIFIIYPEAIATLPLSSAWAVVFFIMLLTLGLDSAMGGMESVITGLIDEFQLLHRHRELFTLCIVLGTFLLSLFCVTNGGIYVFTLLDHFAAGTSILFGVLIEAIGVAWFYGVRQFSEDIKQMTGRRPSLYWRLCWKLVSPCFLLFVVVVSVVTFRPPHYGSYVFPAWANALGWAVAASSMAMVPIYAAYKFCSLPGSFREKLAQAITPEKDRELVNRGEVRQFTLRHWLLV
Briefly: Dopamine reuptake inhibition assay ([3H]WIN 35428 binding, guinea pig striatal membranes). The following applies: for inhibition at 0.1 µM / inhibition at 10 µM: read-out: DA Uptake mean % inhibition; for Ki: read-out: DA Uptake Ki. On the procedure:
as §1, §2
Dopamine Reuptake Inhibition Assay:
Reactions were terminated by rapid vacuum filtration onto glass fiber filters. Bound radioactivity was determined using liquid scintillation spectrometry and experimental values were compared to control values to determine binding to the dopamine transporter site based on Madras, et al., Molec.

Setting [4] is: @ 10.0 μM (bottom number), Table I.

Counter-ions that a name gives are not always drawn. Like-named read-outs stand apart in the source and are kept apart here.

This is an account of results in patent US20040039014A1, “Methods and compounds for treating depression and other disorders” (NPS Pharmaceuticals, Inc., priority 1998, published 2004).

With `Cc1ccccc1OC(CCN)c1cccc(F)c1` (centres unmarked) [Compound 181], the IC50 on NMDA receptor came to 632 nM. The inhibition at 0.1 µM in assay [1] was determined as 37.4%; in assay [2] (@ 100 nM (top number), Table I) it was 10.7%; in assay [3] (@ 100 nM (top number), Table I), 0%. The inhibition at 10 µM in assay [1] worked out at 74.2%; in assay [2] (setting [4]), 32%; in assay [3] (setting [4]), 109%.

With `NCCC1c2cc(F)ccc2CCc2c(F)cccc21` (centres unmarked) [Compound 194], the IC50 on NMDA receptor amounted to 371 nM.

For `NCCC1c2cc(F)ccc2CCc2ccc(F)cc21` [Compound 195], the IC50 at NMDA receptor is 29 nM.

On to `CNCCC(Oc1cccc(F)c1)c1cccc(F)c1` (centres unmarked) [Compound 145], for which the IC50 at NMDA receptor is 626 nM. Moreover, the inhibition at 0.1 µM in assay [1] was determined as 3.5%; in assay [2] (@ 100 nM (top number), Table I) it was 16.6%; in assay [3] (@ 100 nM (top number), Table I), 0%. The inhibition at 10 µM in assay [1] was determined as 81.1%; in assay [2] (setting [4]) it was 99.4%; in assay [3] (setting [4]), 87.4%.

`NCCC1c2ccccc2CCc2ccc(F)cc21` (centres unmarked) [Compound 197]: the IC50 on NMDA receptor came out at 53 nM. The inhibition at 0.1 µM in assay [1] amounted to 9.8%; in assay [2] (@ 100 nM (top number), Table I), 0%; in assay [3] (@ 100 nM (top number), Table I), 0%. The inhibition at 10 µM is 58.1% in assay [1], 27.5% in assay [2] (setting [4]) and 83.5% in assay [3] (setting [4]).

Turning to `NCCC(Oc1cccc(F)c1)c1cccc(Cl)c1` (centres unmarked) [Compound 150], the IC50 at NMDA receptor is 351 nM.

In the case of `NCC[C@H](Oc1cccc(F)c1)c1cccc(F)c1` [Compound 192], the Ki came to 14 nM in assay [1], 325 nM in assay [2] (Table I) and 1300 nM in assay [3] (Table I).

`CNC[C@H](C)C(c1cccc(F)c1)c1cccc(F)c1` [Compound 66]: at NMDA receptor, the IC50 is 1200 nM. The inhibition at 0.1 µM in assay [1] is 6.1%; in assay [2] (@ 100 nM (top number), Table I), 4.2%; in assay [3] (@ 100 nM (top number), Table I) it was 4.4%. For the same molecule, the inhibition at 10 µM is 67.5% in assay [1], 36.5% in assay [2] (setting [4]) and 92.8% in assay [3] (setting [4]).

`Cc1ccccc1OC(CCN)c1ccccc1` (centres unmarked) [Compound 177]: the IC50 on NMDA receptor worked out at 754 nM. Also, the results for the Ki in assay [2] and in assay [3] (Table I) were 109 nM and over 10000 nM, respectively.

Regarding `NCCC1c2ccccc2C=Cc2ccccc21` [Compound 184], the IC50 on NMDA receptor came out at 1510 nM.

In the case of `Fc1ccc([C@@H]2CCNC[C@H]2COc2ccc3c(c2)OCO3)cc1` [Paroxetine, reference compound], the inhibition at 0.1 µM in assay [3] was under 20%.

For `NCCC1c2ccccc2Sc2ccccc21` [Compound 183], on NMDA receptor, the IC50 is 5010 nM.

Turning to `CN[C@@H](C)CC(c1cccc(F)c1)c1cccc(F)c1` [Compound 69], the IC50 at NMDA receptor is 366 nM.

With `NCCC(Oc1cccc(F)c1)c1cccc(F)c1` (centres unmarked) [Compound 119, 3-(3-Fluorophenoxy)-3-(3-fluorophenyl)-1-propylamine], in assay [1], the inhibition at 0.1 µM worked out at 0.6% and the inhibition at 10 µM was found to be 3.1%.

In the case of `NCCC(Oc1cccc(Cl)c1)c1cccc(Cl)c1` (centres unmarked) [Compound 149], the IC50 on NMDA receptor came out at 150 nM.

In the case of `COc1ccccc1OC(CCN)c1cccc(F)c1` (centres unmarked) [Compound 121], the IC50 on NMDA receptor came to 670 nM. In addition, the inhibition at 0.1 µM in assay [1] was determined as 8.5%; in assay [2] (@ 100 nM (top number), Table I), 33.6%; in assay [3] (@ 100 nM (top number), Table I) it was 1.8%. Further, the figures for the inhibition at 10 µM in assay [1], in assay [2] (setting [4]) and in assay [3] (setting [4]) were 84.3%, 94.9% and 91.3%, respectively.

Regarding `NCCC(Oc1ccccc1)c1cccc(Cl)c1` (centres unmarked) [Compound 148], at NMDA receptor, the IC50 was found to be 373 nM.

Consider `NCCC1c2ccccc2Oc2ccccc21` [Compound 182], for which the IC50 on NMDA receptor was determined as 7050 nM.

Take `NCCC(Oc1ccccc1)c1cccc(F)c1` (centres unmarked) [Compound 118]: the IC50 at NMDA receptor was 240 nM. Besides, the figures for the Ki in assay [1] and in assay [3] (Table I) were 131 nM and 4100 nM, respectively.

In the case of `NCC[C@H](Oc1cccc(F)c1)c1ccccc1` [Compound 186], the Ki in assay [3] (Table I) came to 3100 nM.

Turning to `Cc1ccccc1C(CCN)c1ccccc1C` [Compound 65], the IC50 at NMDA receptor is 2000 nM. Further, the figures for the Ki in assay [1] and in assay [3] (Table I) were 127 nM and 22000 nM, respectively.

Take `NCCC(Oc1cccc(Cl)c1)c1cccc(F)c1` (centres unmarked) [Compound 120]: at NMDA receptor, the IC50 was determined as 74 nM.

Consider `NCC[C@@H](Oc1cccc(F)c1)c1ccccc1` [Compound 185, (R)-3-(3-Fluorophenoxy)-3-phenylpropylamine], for which the Ki in assay [1] amounted to 2400 nM; in assay [3] (Table I), 1100 nM.

Regarding `NCCC1c2ccccc2COc2ccccc21` (centres unmarked) [Compound 187], the IC50 on NMDA receptor worked out at 2010 nM.

For the molecule `NCCC1c2ccccc2CCc2c(F)cccc21` (centres unmarked) [Compound 196], the IC50 on NMDA receptor worked out at 2240 nM.

For `N[C@@H]1CCCC1C(c1cccc(F)c1)c1cccc(F)c1` (some centres unmarked) [Compound 64], the IC50 at NMDA receptor is 851 nM. Further, the figures for the Ki in assay [1], in assay [2] (Table I) and in assay [3] (Table I) were 252 nM, 508 nM and 119 nM, respectively.

Turning to `COc1ccccc1OC(CCN)c1ccccc1` (centres unmarked) [Compound 178], the IC50 on NMDA receptor is 1250 nM.

Regarding `CCNCCC(c1cccc(F)c1)c1cccc(F)c1` [Compound 59], on NMDA receptor, the IC50 was determined as 453 nM. Moreover, the inhibition at 0.1 µM came to 14.3% in assay [1]; 7.4% in assay [2] (@ 100 nM (top number), Table I); 1.6% in assay [3] (@ 100 nM (top number), Table I). Moreover, the inhibition at 10 µM was 85.7% in assay [1], 50.6% in assay [2] (setting [4]) and 77.6% in assay [3] (setting [4]).

With `NCC[C@@H](Oc1cccc(F)c1)c1cccc(F)c1` [Compound 191], the IC50 at NMDA receptor worked out at 1300 nM. In addition, the Ki in assay [1] amounted to 134 nM; in assay [2] (Table I) it was 638 nM; in assay [3] (Table I) it was 1550 nM.

`CNCCC(c1cccc(F)c1)c1cccc(OC)c1` (centres unmarked) [Compound 142]: at NMDA receptor, the IC50 was 1540 nM.

On to `N[C@H]1CCCC1C(c1cccc(F)c1)c1cccc(F)c1` (some centres unmarked) [Compound 63], for which the IC50 at NMDA receptor was 245 nM. Also, the inhibition at 0.1 µM in assay [1] worked out at 13.4%; in assay [2] (@ 100 nM (top number), Table I) it was 6.8%; in assay [3] (@ 100 nM (top number), Table I) it was 64.3%. In addition, the inhibition at 10 µM in assay [1] was determined as 84.6%; in assay [2] (setting [4]) it was 76.2%; in assay [3] (setting [4]), 97.8%.

With `NCCC1c2ccccc2CCc2ccccc21` [Compound 156, 5-(2-Aminoethyl)-5H-10,11-dihydrodibenzo [a, d] cycloheptene hydrochloride], the IC50 at NMDA receptor turned out to be 90 nM. Moreover, the Ki in assay [1] is 1200 nM; in assay [2] (Table I) it was 570 nM; in assay [3] (Table I) it was over 10000 nM.

Take `CNCCC(c1ccccc1)c1cccc(F)c1` (centres unmarked) [Compound 108]: the IC50 on NMDA receptor was 942 nM.

As for `NCCC(Oc1ccccc1F)c1cccc(F)c1` (centres unmarked) [Compound 122], the IC50 at NMDA receptor came to 342 nM. Besides, the Ki in assay [1] was found to be 62 nM; in assay [2] (Table I) it was 103 nM; in assay [3] (Table I) it was 2800 nM.

Take `NCCC1c2cccc(F)c2CCc2c(F)cccc21` [Compound 193]: the IC50 on NMDA receptor is over 1000 nM.

Regarding `CC(CN)C(c1cccc(Cl)c1)c1cccc(Cl)c1` (centres unmarked) [Compound 46], at NMDA receptor, the IC50 was 5200 nM. Further, the inhibition at 0.1 µM is 10.4% in assay [1], 7.4% in assay [2] and 40.2% in assay [3]. Also, the inhibition at 10 µM in assay [1] was determined as 75.4%; in assay [2] it was 64%; in assay [3], 97.1%.

On to `Cc1ccc(F)cc1C(CCN)c1cc(F)ccc1C` [Compound 58], for which the IC50 on NMDA receptor was found to be 203 nM. Moreover, the inhibition at 0.1 µM in assay [1] turned out to be 27.2%; in assay [2] (@ 100 nM (top number), Table I), 1.3%; in assay [3] (@ 100 nM (top number), Table I), 0%. The results for the inhibition at 10 µM in assay [1], in assay [2] (setting [4]) and in assay [3] (setting [4]) were 95.2%, 66.6% and 45.2%, respectively.
